Legend:
[1] = target: T1, human p38alfa (SAPKa) enzyme (Homo sapiens, UniProt Q16539); assay: p38alpha enzymatic inhibition assay (FRET, ATF2 substrate); format: biochemical; conditions: 1 h pre-incubation, ATP 60 μM, ATF2 0.62 μM, 25° C., read-out: p38α IC50
T1 construct: purchased University of Dundee
Method: Enzymatic activity assay was performed in 96-well microtiter plates (Corning, catalog number # 3686) using a total volume of 50 μl of an assay buffer composed of 50 mM HEPES pH 7.5, 10 mM MgCl2, 1.75 mM Na3VO4.
Various concentrations of the test compound or vehicle controls were pre-incubated for one hour with 0.055 μg/ml of the human p38alfa (SAPKa) enzyme (obtained from University of Dundee). […] Addition of the detection reagents, streptavidin-XL665 and anti-phosphoresidue antibody coupled to Europium cryptate, caused the juxtaposition of the cryptate and the XL665 fluorophore, resulting in fluorescence energy transfer (FRET). The FRET intensity depends on the amount of bounded cryptate antibody, which is proportional to the extent of substrate phosphorylation. FRET intensity was measured using Victor 2V spectrofluorometer. Data were analyzed by non-linear regression (Hill equation) to generate a dose-response curve. The calculated IC50 value is the concentration of the test compound that caused a 50% decrease in the maximal FRET intensity.

[2] = test system: TNFα production in human monocytic cell line THP-1; assay: Inhibition of LPS-induced TNFα production in THP-1 cells; format: cell-based; conditions: LPS 10 μg/ml, 5 h, TNFα ELISA
Method: The activity of compounds in inhibiting TNFα production was measured in a cellular assay using the human monocytic cell line THP-1. For this purpose, 2×10^5 cells/well were plated in tissue-culture treated round-bottom 96-well plates in RPMI (containing 10% FCS, L-Gln 2 mM, Hepes buffer 10 mM, sodium pyruvate 1 mM, glucose 4.5 gr/L, HNaCO3 1.5 g/L and beta-mercaptoethanol 50 μM), together with compounds at the desired test concentration and LPS (Sigma, L2630) at a final 10 μg/ml concentration. Compounds were resuspended in 100% DMSO at a concentration of 1 mM and titrated thereof in 10× dilutions in medium. Controls included stimulated cells alone and stimulated cells treated with the highest concentration of compound vehicle (1% DMSO). Cells were incubated for 5 h at 37° C. in a 5% CO2 atmosphere. Cell supernatant was recovered by centrifugation and diluted 5-fold prior to testing in a standard human TNFα ELISA (RnD systems).
Data were analyzed by non-linear regression (Hill equation) to generate a dose-response curve. The calculated IC50 value is the concentration of the test compound that caused a 50% decrease in the maximal TNFα production.

T1 sequence (Q16539 whole entry): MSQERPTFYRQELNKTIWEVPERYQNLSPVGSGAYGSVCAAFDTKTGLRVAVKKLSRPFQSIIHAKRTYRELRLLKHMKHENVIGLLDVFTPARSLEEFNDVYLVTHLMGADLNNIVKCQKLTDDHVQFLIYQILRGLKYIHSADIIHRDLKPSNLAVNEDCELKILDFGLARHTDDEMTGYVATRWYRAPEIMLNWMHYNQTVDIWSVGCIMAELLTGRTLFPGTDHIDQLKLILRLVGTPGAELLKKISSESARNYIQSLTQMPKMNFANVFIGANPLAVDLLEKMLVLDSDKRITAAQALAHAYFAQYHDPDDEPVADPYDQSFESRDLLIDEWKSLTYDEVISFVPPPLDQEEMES

| IC50 [1] [nM] | IC50 [2] [nM] | Compound |
| --- | --- | --- |
| 251 | 130 | Nc1c(C(=O)c2ccc(F)cc2F)ccnc1-c1ccccc1Cl [Example 25, [3-Amino-2-(2-chlorophenyl)pyridin-4-yl](2,4-difluorophenyl)methanone] |
|  | 76 | Nc1c(C(=O)c2ccc(F)cc2F)cc[n+]([O-])c1-c1ccccc1Cl [Example 26, [3-Amino-2-(2-chlorophenyl)-1-oxidopyridin-4-yl](2,4-difluorophenyl)methanone] |
|  | 19.4 | Nc1c(C(=O)c2ccc(F)cc2F)cc[n+]([O-])c1-c1c(Cl)cccc1Cl [Example 32, [3-Amino-2-(2,6-dichlorophenyl)-1-oxidopyridin-4-yl](2,4-difluorophenyl)methanone] |
|  | 33 | Cc1cccc(C)c1-c1c(N)c(C(=O)c2ccc(F)cc2F)cc[n+]1[O-] [Example 36, [3-Amino-2-(2,6-dimethylphenyl)-1-oxidopyridin-4-yl](2,4-difluorophenyl)methanone] |
| 277 | 402 | Cc1cc(O)ccc1-c1nccc(C(=O)c2ccc(F)cc2F)c1N [Example 47, [3-Amino-2-(4-hydroxy-2-methylphenyl)pyridin-4-yl](2,4-difluorophenyl)methanone] |
|  | 84 | Cc1cc(O)ccc1-c1c(N)c(C(=O)c2ccc(F)cc2F)cc[n+]1[O-] [Example 48, [3-Amino-2-(4-hydroxy-2-methylphenyl)-1-oxidopyridin-4-yl](2,4-difluorophenyl)methanone] |
| 103 | 53 | Nc1c(C(=O)c2ccc(F)cc2F)ccnc1-c1cccc2c1OCO2 [Example 79, [3-Amino-2-(1,3-benzodioxol-4-yl)pyridin-4-yl](2,4-difluorophenyl)methanone] |
| 31 | 118 | Cc1ccccc1-c1c(N)c(C(=O)c2ccccc2Cl)cc[n+]1[O-] [Example 82, [3-Amino-2-(2-methylphenyl)-1-oxidopyridin-4-yl](2-chlorophenyl)methanone] |
| 34 | 54 | Cc1cccc(C(=O)c2cc[n+]([O-])c(-c3ccccc3C)c2N)c1 [Example 92, [3-Amino-2-(2-methylphenyl)-1-oxidopyridin-4-yl](3-methylphenyl)methanone] |
| 20 | 48 | Cc1cccc(C(=O)c2cc[n+]([O-])c(-c3c(F)cccc3F)c2N)c1 [Example 98, [3-Amino-2-(2,6-difluorophenyl)-1-oxidopyridin-4-yl](3-methylphenyl)methanone] |
| 359 | 349 | Nc1c(C(=O)c2cccc(F)c2)ccnc1-c1cccc2c1OCO2 [Example 109, [3-Amino-2-(1,3-benzodioxol-4-yl)pyridin-4-yl](3-fluorophenyl)methanone] |
| 86 | 140 | COc1ccccc1C(=O)c1cc[n+]([O-])c(-c2c(F)cccc2F)c1N [Example 118, [3-Amino-2-(2,6-difluorophenyl)-1-oxidopyridin-4-yl](2-methoxyphenyl)methanone] |
| 146 | 98 | COc1ccccc1C(=O)c1cc[n+]([O-])c(-c2c(C)cccc2C)c1N [Example 120, [3-Amino-2-(2,6-dimethylphenyl)-1-oxidopyridin-4-yl](2-methoxyphenyl)metha-none] |
